According to patent EP0369733A2, “Fluorescent indicator dyes for alkali metal cations, their preparation and use” (THE REGENTS OF THE UNIVERSITY OF CALIFORNIA, priority 1988, dated 1990):
Where “and” joins values, the source holds several entries; their conditions need not be identical. Equal values may be shown once. Read-outs that look alike come from different tables or passages of the source.

Columns and labels:
[1] = Cation titration followed by absorbance or fluorescence excitation spectra: Na⁺ binding; details: for Kd: read-out: Dissociation constants (Kd) in mM for Na⁺
Protocol: (§1) • Footnote a: For molecular structures, see Fig. 1. • Footnote b: Except where otherwise noted, these dissociation constants were measured with the chelator dissolved in 0.1 M tetramethylammonium chloride, at a pH held high enough with 1-5 mM tris(hydroxymethyl)aminomethane for protonation to be insignificant. The absorbance spectrum, or the fluorescence excitation spectrum for those compounds (2GG, 2NN, 2OO, 2PP, 3NN) with acronyms was measured as a function of the concentration of cation added as a solid or concentrated aqueous solution of the halide salt. No correction has been made for the changing ionic strength of the solution, which started from 0.1 M and increased, but the absorbances and fluorescence amplitudes were applied for dilution of the dye and any slight quenching due to high concentrations of Cl⁻. • Footnote c: These protonation constants were determined in 0.1 M tetramethylammonium chloride, 10 mM tris(hydroxymethyl)aminomethane, titrated with 5 M H₃PO₄ to successively lower pH values measured with a Radiometer PHM84 meter. […] The first number is the wavelength in nanometers, followed in parentheses by 10⁻³ x the corresponding extinction coefficient, M⁻¹cm⁻¹. […] Emission maxima are not corrected for the spectral sensitivity of the emission detection. Quantum efficiencies were measured (13) by comparing the integral of the corrected emission spectrum with the corresponding integral for a solution of quinine bisulfate in 1 N H₂SO₄ of matched absorbance at the excitation wavelength.
Affinities for other cations were usually measured by titrating aqueous solutions of the indicator with metal chlorides added either as solid or from concentrated stock solutions, taking care to minimize dilution and correct for it. A convenient way to mass-produce premeasured micromole to millimole aliquots of solid NaCl or KCl was to pipet saline solutions into polypropylene micro test tubes and evaporate the water in an oven. The standard ionic background was again 100 mM tetramethylammonium chloride, usually with a few mM of tris(hydroxymethyl)-aminomethane base to hold the pH high enough (pH 8-9) to insure that protonation was negligible. This convenient titration procedure had the slight disadvantage that the ionic strength was not constant, especially when large quantities of a salt had to be added due to weak affinities. […] When constant ionic strength was desired, the chelator was made up at identical concentrations in matched solutions of NaCl, KCl, or tetramethylammonium chloride, then these stocks were mixed in the desired proportions. All measurements were made at room temperature (22°, ±2° C).

[2] = UV absorbance spectra without and with saturating cation; format: physicochemical; details: for Absorbance maxima -Na⁺ (wavelength): 100 mM tetramethylammonium chloride plus 1-5 mM Tris; for Absorbance maxima -Na⁺ (wavelength) / Absorbance maxima -Na⁺ (extinction coefficient): no Na⁺; for Absorbance maxima +Na⁺ (wavelength): enough NaCl added (0.2-1 M) to saturate the Na⁺ binding; for Absorbance maxima -Na⁺ (extinction coefficient) / Absorbance maxima +Na⁺ (extinction coefficient): number is 10⁻³ x the extinction coefficient; for Absorbance maxima -Na⁺ (extinction coefficient): lower limits for most compounds; for Absorbance maxima +Na⁺ (extinction coefficient): lower limits, saturating NaCl (0.2-1 M)
Protocol: as §1
(§2) UV absorbance spectra were recorded initially on a Cary 210 and later on a Perkin-Elmer Lambda Array 3840 spectrophotometer. Fluorescence excitation and emission spectra and quantum efficiencies were measured on a Spex Fluorolog 111 as described previously (13).

physchem = details: 0.1 m tetramethylammonium chloride
[3] = Fluorescence excitation/emission spectra and quantum efficiency; format: physicochemical; details: for Emission maxima -Na⁺: 100 mM tetramethylammonium chloride; for Emission maxima -Na⁺ / Quantum efficiency -Na⁺: no Na⁺; for Emission maxima -Na⁺ / Emission maxima +Na⁺: not corrected for detector sensitivity; for Quantum efficiency -Na⁺ / Quantum efficiency +Na⁺: relative to quinine bisulfate in 1 N H₂SO₄ (0.55); for Emission maxima +Na⁺: saturating NaCl; for Quantum efficiency +Na⁺: saturating Na⁺
Protocol: as §1, §2

[4] = Proton dissociation constants in 0.1 M tetramethylammonium chloride; details: second value (second protonation), 10 mM Tris titrated with 5 M H₃PO₄
[5] = 0.1 M tetramethylammonium chloride, 1-5 mM tris(hydroxymethyl)aminomethane, pH high enough for protonation to be insignificant, 22°

SMILES	Kd [1, 5] [mM]	Absorbance maxima -Na⁺ (wavelength) [2]	Absorbance maxima +Na⁺ (wavelength) [2] [nanometers]	Absorbance maxima -Na⁺ (extinction coefficient) [2] [M⁻¹ cm⁻¹]	Absorbance maxima +Na⁺ (extinction coefficient) [2] [M⁻¹ cm⁻¹]	pKa (physchem)	Emission maxima -Na⁺ [3] [nanometers]	Quantum efficiency -Na⁺ [3]	Emission maxima +Na⁺ [3] [nanometers]	Quantum efficiency +Na⁺ [3]	pKa [4]	also measured
Nc1ccc(N2CCOCCOCCOCCOCC2)c(C(=O)O)c1 [Compound 1B, N-(4-amino-2-carboxyphenyl)-aza[15]-crown-5]	71	295 nanometers	296	1100	1100	9.21	–	–	–	–	–	Na⁺ affinity ([1]; association constant, inert background cation (tetramethylammonium)): 14 M⁻¹
CC(=O)Nc1ccc(N2CCOCCOCCN(c3ccc(NC(C)=O)c4ccc(C)nc34)CCOCC2)c2nc(C)ccc12 [Compound 2DD, N,N-bis-(5-acetamido-2-methyl-8-quinolinyl)-diaza[15]-crown-5]	9.4	–	–	–	–	7.55	525	.01	510	.01	5.62	Kd ([1]; footnote h: 3.0 M ionic strength (3.0 M NaCl mixed with 3.0 M tetramethylammonium chloride)): 4.4 mM; Na⁺ affinity relative to 2CC ([1]; fraction of the affinity of 2CC retained): more than half; Absorbance maxima -Na⁺ (wavelength) ([2]; listed as 2DO): 344 nanometers and 256 nanometers; Absorbance maxima +Na⁺ (wavelength) ([2]; listed as 2DO): 306 nanometers and 237 nanometers; fluorescence quantum yield ([3]; ±Na⁺ not specified): 0.01
Cc1ccc2cc(O)cc(N3CCOCCOCCN(c4cc(O)cc5ccc(C)nc45)CCOCC3)c2n1 [Compound 2FF, N,N-bis-(6-hydroxy-2-methyl-8-quinolinyl)-diaza[15]-crown-5]	8.9	363 nanometers	362	2400	2300	–	497	–	466	–	–	–
Cc1ccc2c(n1)c(N1CCOCCOCCN(c3cc4oc(-c5ccc(C(=O)O)c(C(=O)O)c5)cc4c4ccc(C)nc34)CCOCC1)cc1oc(-c3ccc(C(=O)O)c(C(=O)O)c3)cc12 [Compound 2GG, N,N-bis(2-(3,4-dicarboxyphenyl)-7-methylfuro [3,2-f]quinolin-5-yl)-diaza[15]-crown-5]	4.7	–	–	–	–	7.9	486	.005	525	.01	6.8	Absorbance maxima -Na⁺ (wavelength) ([2]; listed as 2GG (SQFP)): 373 nanometers and 308 nanometers; Absorbance maxima +Na⁺ (wavelength) ([2]; listed as 2GG (SQFP)): 362 nanometers and 307 nanometers; Absorbance maxima -Na⁺ (extinction coefficient) ([2]; listed as 2GG (SQFP)): 24000 M⁻¹ cm⁻¹ and 22000 M⁻¹ cm⁻¹; Absorbance maxima +Na⁺ (extinction coefficient) ([2]; listed as 2GG (SQFP)): 31000 M⁻¹ cm⁻¹ and 28000 M⁻¹ cm⁻¹
COc1ccc(OC)c(N2CCOCCOCCN(c3cc(OC)ccc3OC)CCOCC2)c1 [Compound 2LL, N,N-bis-(2,5-dimethoxyphenyl)-diaza[15]-crown-5]	10 to 20	295 nanometers and 213 nanometers	291	–	4000	–	–	–	–	–	–	–
